Results as given in US9914723B2, “Small molecule inhibitors of Mcl-1 and uses thereof” (THE REGENTS OF THE UNIVERSITY OF MICHIGAN, priority 2012, dated 2018).
pEC50, pIC50, pKi: −log10 of the molar value.

Columns and labels:
Mcl-1 [1] = biological target: T1, Mcl-1 (Homo sapiens, UniProt Q07820); experiment: fluorescence polarizing binding assay, binding to Mcl-1; settings: for binding / inhibition of Mcl-1 compared with UMI-1033, in words: 4-methyl-1-piperazinyl group of UMI-1033 replaced; for pIC50: fluorescence polarizing binding assay; for fold decrease of binding affinity to Mcl-1: in comparison with UMI-1033
T1 sequence (Q07820 whole entry, species assumed): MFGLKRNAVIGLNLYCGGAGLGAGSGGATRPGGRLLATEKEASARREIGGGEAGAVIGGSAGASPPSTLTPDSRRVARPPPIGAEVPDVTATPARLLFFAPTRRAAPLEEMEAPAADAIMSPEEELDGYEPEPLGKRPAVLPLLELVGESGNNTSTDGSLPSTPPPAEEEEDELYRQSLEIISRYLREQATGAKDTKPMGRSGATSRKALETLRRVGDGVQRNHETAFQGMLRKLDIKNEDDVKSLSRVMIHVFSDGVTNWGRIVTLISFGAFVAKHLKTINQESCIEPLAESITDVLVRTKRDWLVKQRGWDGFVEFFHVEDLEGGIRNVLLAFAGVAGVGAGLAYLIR
Description: FIGS. 1, 2, 3, and 4 show various compounds for Formula I having various R1, R2, R3, R4, R5, R6, R7 and R8 groups, and related structure activity relationship (SAR) for each respective compound (IC50 values were determined with fluorescence polarizing binding assay).

Mcl-1 [2] = biological target: T1, Mcl-1; experiment: Binding affinity against Bcl-2 family anti-apoptotic proteins: Mcl-1
A1 = biological target: T2, A1 (Homo sapiens, UniProt Q16548); experiment: Binding affinity against Bcl-2 family anti-apoptotic proteins: A1
T2 sequence (Q16548 1-175): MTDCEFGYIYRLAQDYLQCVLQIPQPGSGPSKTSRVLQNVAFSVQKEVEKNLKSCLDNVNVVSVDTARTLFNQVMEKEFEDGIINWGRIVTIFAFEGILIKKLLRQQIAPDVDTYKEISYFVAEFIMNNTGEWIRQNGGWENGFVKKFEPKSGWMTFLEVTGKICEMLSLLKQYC

Bcl-w = biological target: T3, Bcl-w (Homo sapiens, UniProt Q92843); experiment: Binding affinity against Bcl-2 family anti-apoptotic proteins: Bcl-w
T3 sequence (Q92843 1-193): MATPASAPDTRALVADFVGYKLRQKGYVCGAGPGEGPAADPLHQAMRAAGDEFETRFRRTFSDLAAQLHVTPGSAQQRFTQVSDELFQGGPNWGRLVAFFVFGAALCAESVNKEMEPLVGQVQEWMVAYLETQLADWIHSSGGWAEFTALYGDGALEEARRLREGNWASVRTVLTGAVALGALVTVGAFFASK

Bcl-2 = Bcl-2 (Homo sapiens, UniProt P10415); experiment: Binding affinity against Bcl-2 family anti-apoptotic proteins: Bcl-2
Chain of Bcl-2 (P10415 whole entry, species assumed): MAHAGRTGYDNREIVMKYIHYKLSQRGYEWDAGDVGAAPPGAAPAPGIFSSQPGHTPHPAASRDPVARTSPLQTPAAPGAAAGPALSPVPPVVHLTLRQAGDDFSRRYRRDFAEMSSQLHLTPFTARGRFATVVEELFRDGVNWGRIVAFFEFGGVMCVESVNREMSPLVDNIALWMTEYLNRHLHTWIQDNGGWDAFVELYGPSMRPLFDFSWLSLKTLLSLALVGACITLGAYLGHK

Bcl-xL = Bcl-xL (Homo sapiens, UniProt Q07817); experiment: Binding affinity against Bcl-2 family anti-apoptotic proteins: Bcl-xL
Chain of Bcl-xL (Q07817 whole entry, species assumed): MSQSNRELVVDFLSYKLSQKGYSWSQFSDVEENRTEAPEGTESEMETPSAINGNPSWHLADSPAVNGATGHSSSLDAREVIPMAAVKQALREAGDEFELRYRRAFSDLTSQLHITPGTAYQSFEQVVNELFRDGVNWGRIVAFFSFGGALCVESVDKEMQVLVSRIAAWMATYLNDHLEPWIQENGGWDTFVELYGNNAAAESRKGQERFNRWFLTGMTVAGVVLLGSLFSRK

HL-60 = experiment: Cellular activity against leukemia human tumor cell lines: HL-60; type: cell-based; settings: AML-derived cell line
Description: (§1) Acute myeloid leukemia (AML) frequently relapses after initial treatment. Drug resistance in AML has been attributed to high levels of the anti-apoptotic Bcl-2 family proteins. Indeed, Mcl-1 is essential for development and survival of acute myelogenous leukemia cells. Therefore the cellular activity of Mcl-1 inhibitors against AML human cancer cell lines was tested. Blockade of Mcl-1 by these inhibitors (see Table 3) killed AML-derived cell lines, HL-60 and MV4-11, but had less impact on the human CML-derived (K562) cell line.

MV4-11 = experiment: Cellular activity against leukemia human tumor cell lines: MV4-11; type: cell-based; settings: AML-derived cell line
Description: as §1

K562 = experiment: Cellular activity against leukemia human tumor cell lines: K562; type: cell-based; settings: human CML-derived cell line
Description: as §1

HL-60 cell line = experiment: Induction of apoptosis in HL-60, flow cytometry with Annexin V and propidium iodide double staining; caspase-3 activation; type: cell-based, human
From the text: To gain insights into the underlying mechanism of action for the cell growth inhibition of this class Mcl-1 inhibitors, the HL-60 cell line was selected and investigated if apoptosis contributes to the antiproliferative effect. Induction of apoptosis was monitored by flow cytometry using Annexin V and propidium iodide double staining.

MEF WT cells = experiment: Cell death in wild-type MEF cells; type: cell-based, mouse
Description: (§2) It is known that apoptotic effectors Bak and Bax can be suppressed by multidomain anti-apoptotic proteins such as Mcl-1. To interrogate the mechanism of action, the activity of several novel Mcl-1 inhibitors were evaluated in mouse embryonic fibroblast (MEF) cells that included wild-type (WT) as well as cells deficient in Bax/Bak (DKO).

MEF DKO cells = experiment: Cell death in Bax/Bak deficient (DKO) MEF cells; type: cell-based, mouse
Description: as §2

[3] = biological target: T4, cellular, endogenous Mcl-1 protein (Homo sapiens, UniProt Q07820); experiment: Pull-down assay with biotin-labeled Noxa BH3 peptide (BL-Noxa) in 2LMP cell lysate; type: binding
T4 construct: endogenous in cells; host or cells: 2LMP cancer cell line (lysate)
T4 sequence (Q07820 whole entry): as the sequence (Q07820 whole entry, species assumed) above

Mcl-1 [4] = biological target: T1, Mcl-1; settings: cited from earlier work

| SMILES | pKi (Mcl-1 [2]) | pKi (A1) | pKi (Bcl-w) | pKi (Bcl-2) | pKi (Bcl-xL) | pEC50 (HL-60) | pEC50 (MV4-11) | pEC50 (K562) | other results |
| --- | --- | --- | --- | --- | --- | --- | --- | --- | --- |
| CCOC(=O)c1c(C)oc2c1c(C(c1cccc(F)c1)N1CCN(C)CC1)c(O)c1ccccc12 (stereo not drawn) [UMI-1003] |  |  |  |  |  |  |  |  | pIC50 (Mcl-1 [1]): 6.70 |
| CCOC(=O)c1c(C)oc2c1c(C(c1ccncc1)N1CCOCC1)c(O)c1ccccc12 (stereo not drawn) [UMI-1007] | 7.70 | < 4.60 | < 4.52 | < 4.52 | < 4.52 | 4.80 | 4.89 |  | disruption of the interactions between BL-Noxa and cellular Mcl-1 [3]: effectively disrupted the interactions between BL-Noxa and cellular Mcl-1 |
| CCOC(=O)c1c(C)oc2c1c(C(c1ccncc1)N1CCc3ccccc3C1)c(O)c1ccccc12 (stereo not drawn) [UMI-1011] |  |  |  |  |  |  |  |  | pIC50 (Mcl-1 [1]): 6.72; fold decrease of binding affinity to Mcl-1 (Mcl-1 [1]): 3 fold |
| COC(=O)c1c(C)oc2c1c(C(c1ccncc1)N1CCOCC1)c(O)c1ccccc12 (stereo not drawn) [UMI-1036] |  |  |  |  |  | 4.79 | 5.09 | < 4.52 | cell death in MEF WT (MEF WT cells): induced cell death; cell death in MEF DKO (MEF DKO cells): not in MEF DKO cells |
| CCOC(=O)c1c(C)oc2c1c(C(c1ccc(F)cc1)N1CCN(C)CC1)c(O)c1ccccc12 (stereo not drawn) [UMI-118] |  |  |  |  |  |  |  |  | pIC50 (Mcl-1 [1]): 6.72; fold decrease of binding affinity to Mcl-1 (Mcl-1 [1]): 3 fold |
| CN(C)CC[C@H](CSc1ccccc1)Nc1ccc(S(=O)(=O)NC(=O)c2ccc(N3CCN(Cc4ccccc4-c4ccc(Cl)cc4)CC3)cc2)cc1[N+](=O)[O-] [ABT-737] |  |  |  |  |  |  |  |  | binding to Mcl-1 (Mcl-1 [4]): fails to bind |
| CCOC(=O)c1c(C)oc2c1c(C(c1ccncc1)N1CCN(CC)CC1)c(O)c1ccccc12 (stereo not drawn) [UMI-1008] |  |  |  |  |  |  |  |  | binding / inhibition of Mcl-1 compared with UMI-1033, in words (Mcl-1 [1]): kept same |

Further lines, with some results ahead:

| pKi (Mcl-1 [2]) | pKi (A1) | pKi (Bcl-w) | pKi (Bcl-2) | pKi (Bcl-xL) | pEC50 (HL-60) | pEC50 (MV4-11) | pEC50 (K562) | SMILES | other results |
| --- | --- | --- | --- | --- | --- | --- | --- | --- | --- |
| 7.82 | < 4.60 | < 4.52 | < 4.52 | < 4.52 | 5.40 | 5.15 | < 4.52 | CCOC(=O)c1c(C)oc2c1c(C(c1ccncc1)N1CCN(C(C)C)CC1)c(O)c1ccccc12 (stereo not drawn) [UMI-1009] | binding / inhibition of Mcl-1 compared with UMI-1033, in words (Mcl-1 [1]): kept same; caspase-3 activation (HL-60 cell line; HL-60): activation of caspase-3; induction of apoptosis (HL-60 cell line; HL-60, 5 μM): 37%; induction of apoptosis (HL-60 cell line; HL-60, 10 μM): 57% |
|  |  |  |  |  | 4.83 | 5.00 | < 4.52 | CCOC(=O)CN1CCN(C(c2ccncc2)c2c(O)c3ccccc3c3oc(C)c(C(=O)OCC)c23)CC1 (stereo not drawn) [UMI-1042] | cell death in MEF WT (MEF WT cells): induced cell death; cell death in MEF DKO (MEF DKO cells): not in MEF DKO cells |
| 7.52 | < 4.60 | < 4.52 | < 4.52 | < 4.52 |  |  |  | CCOC(=O)c1c(C)oc2c1c(C(c1ccnc(Cl)c1)N1CCOCC1)c(O)c1ccccc12 (stereo not drawn) [UMI-1026] |  |
| 7.70 | < 4.60 | < 4.52 | 4.78 | < 4.52 | 4.95 | 5.15 | < 4.52 | CCOC(=O)c1c(C)oc2c1c(C(c1ccncc1)N1CCN(C)CC1)c(O)c1ccccc12 (stereo not drawn) [UMI-1033] |  |
| 7.82 | < 4.60 | 4.55 | 4.86 | < 4.52 |  |  |  | COC(=O)c1c(C)oc2c1c(C(c1ccncc1)N1CCN(C)CC1)c(O)c1ccccc12 (stereo not drawn) [UMI-1035] | pEC50 (HL-60; Homo sapiens, HL-60): 4.91; pEC50 (MV4-11; Homo sapiens, MV4-11): 5.21; pEC50 (K562; K562): 4.61; cell death in MEF WT (MEF WT cells): induced cell death; cell death in MEF DKO (MEF DKO cells): not in MEF DKO cells |
